Values after ≈ are worked out from the molar mass of the structure shown.
What was measured:
[1] = system: Mycobacterium smegmatis (ATCC607); experiment: In-vitro anti-bacterial activity against strain M. Smegmatis ATCC607; type: cell-based; conditions: 90% inhibitory concentration for bacterial growth, Alamar Blue fluorescence; for IC90 MSM 607: 48 hours; for IC90: Mycolicibacterium smegmatis, ATCC607, 48 h, read-out: IC90 MSM 607
Protocol: D.1. In-Vitro Method for Testing Compounds for Anti-Bacterial Activity Against Strain M. Smegmatis ATCC607
Flat-bottom, sterile 96-well plastic microtiter plates were filled with 180 μl of sterile deionized water, supplemented with 0.25% BSA. Subsequently, stock solutions (7.8× final test concentration) of compounds were added in 45 μl volumes to a series of duplicate wells in column 2 so as to allow evaluation of their effects on bacterial growth. Serial five-fold dilutions (45 μl in 180 μl) were made directly in the microtiter plates from column 2 to 11 using a customised robot system (Zymark Corp., Hopkinton, Mass.). Pipette tips were changed after every 3 dilutions to minimize pipetting errors with high hydrophobic compounds. Untreated control samples with (column 1) and without (column 12) inoculum were included in each microtiter plate. Approximately 250 CFU per well of bacteria inoculum, in a volume of 100 μl in 2.8× Mueller-Hinton broth medium, was added to the rows A to H, except column 12. The same volume of broth medium without inoculum was added to column 12 in row A to H. The cultures were incubated at 37° C. for 48 hours in a humidified 5% CO2 atmosphere (incubator with open air valve and continuous ventilation). At the end of incubation, two days after inoculation, the bacterial growth was quantitated fluorometrically. Therefore Alamar Blue (10×) was added to all wells in a volume of 20 μl and plates were incubated for another 2 hours at […]
The fluorescence was read in a computer-controlled fluorometer (Cytofluor, Biosearch) at an excitation wavelength of 530 nm and an emission wavelength of 590 nm (gain 30). The percentage growth inhibition achieved by the compounds was calculated according to standard methods and expressed as IC90 (μg/ml) which defines the 90% inhibitory concentration for bacterial growth.

[2] = system: Staphylococcus aureus (ATCC29213); experiment: In-vitro anti-bacterial activity, microtitre plate assay, IC90 determination (non-mycobacterial strains); type: cell-based; conditions: 90% inhibitory concentration for bacterial growth, resazurin fluorescence; for IC90 STA B29213: 24 hours
Protocol: D.2. In-Vitro Method for Testing Compounds for Anti-Bacterial Activity Against Various Non-Mycobacterial Strains
Preparation of Bacterial Suspensions for Susceptibility Testing:
The bacteria used in this study were grown overnight in flasks containing 100 ml Mueller-Hinton Broth (Becton Dickinson—cat. no. 275730) in sterile de-ionized water, with shaking, at 37° C. Stocks (0.5 ml/tube) were stored at −70° C. until use. Bacteria titrations were performed in microtiter plates to detect the TCID50, in which TCID50 represents the dilution that gives rise to bacterial growth in 50% of inoculated cultures. In general, an inoculum level of approximately 100 TCID50 was used for susceptibility testing.
Anti Bacterial Susceptibility Testing: IC90 Determination
Flat-bottom, sterile 96-well plastic microtiter plates were filled with 180 μl of sterile deionized water, supplemented with 0.25% BSA. Subsequently, stock solutions (7.8× final test concentration) of compounds were added in 45 μl volumes in column 2 Serial five-fold dilutions (45 μl in 180 μl) were made directly in the microtiter plates from column 2 to reach column 11. Untreated control samples with (column 1) and without (column 12) inoculum were included in each microtiter plate. Depending on the bacteria type, approximately 10 to 60 CFU per well of bacteria inoculum (100 TCID50), in a volume of 100 μl in 2.8× Mueller-Hinton broth medium, was added to the rows A to H, except column 12. The same volume of broth medium without inoculum was added to column 12 in row A to H. The cultures were incubated at 37° C. for 24 hours under a normal atmosphere (incubator with open air valve and continuous ventilation). At the end of incubation, one day after inoculation, the bacterial growth was quantitated fluorometrically. Therefore resazurin (0.6 mg/ml) was added in a volume of 20 μl to all wells 3 hours after inoculation, and the plates were re-incubated overnight. A change in colour from blue to pink indicated the growth of bacteria. The fluorescence was read in a computer-controlled fluorometer (Cytofluor Biosearch) at an excitation wavelength of 530 nm and an emission wavelength of 590 nm. The % growth inhibition achieved by the compounds was calculated according to standard methods. The IC90 (expressed in μg/ml) was defined as the 90% inhibitory concentration for bacterial growth.

SMILES	IC90 MSM 607 [1] [µg/mL]	IC90 STA B29213 [2] [µg/mL]	IC90 [1] [µg/mL]	IC90 ([2]; Staphylococcus aureus, ATCC29213, 24 h, read-out: IC90 STA B29213) [µg/mL]
COc1nc2ccc(SC)cc2cc1C(c1cccc(Cl)c1)C1(O)CCNC(c2ccc(F)cc2C)C1 (stereo not drawn) [Compound 147]	1.51 (≈ 2.81 µM)	3.39 (≈ 6.31 µM)	–	–
COc1nc2ccc(SC)cc2cc1C(c1cccc(Cl)c1)C1(O)CCNC(c2ccc(F)cc2C)C1 (stereo not drawn) [Compound 148]	1.70 (≈ 3.17 µM)	3.39 (≈ 6.31 µM)	–	–
COc1nc2ccc(Br)cc2cc1C(c1cccc(Cl)c1)C1(O)CCNC(c2ccc(F)cc2C)C1 (stereo not drawn) [Compound 149]	2.52 (≈ 4.42 µM)	5.63 (≈ 9.88 µM)	–	–
COc1nc2ccc(Br)cc2cc1C(c1cccc(Cl)c1)C1(O)CCNC(c2ccc(F)cc2C)C1 (stereo not drawn) [Compound 150]	1.66 (≈ 2.91 µM)	2.63 (≈ 4.61 µM)	–	–
COc1nc2ccc(Br)cc2cc1C(c1cccc(Cl)c1)C1(O)CCNC(c2ccc(F)cc2C)C1 (stereo not drawn) [Compound 151]	2.35 (≈ 4.12 µM)	5.26 (≈ 9.23 µM)	–	–
COc1nc2ccc(Br)cc2cc1C(c1cccc(Cl)c1)C1(O)CCNC(c2ccc(F)cc2C)C1 (stereo not drawn) [Compound 152]	1.76 (≈ 3.09 µM)	2.78 (≈ 4.88 µM)	–	–
Cc1cc(F)ccc1C1CC(O)(C(c2cccc(Cl)c2)c2cc3cc(S(C)(=O)=O)ccc3[nH]c2=O)CCN1 (stereo not drawn) [Compound 159]	>14.69	>14.69	–	–
CSc1ccc2[nH]c(=O)c(C(c3cccc(Cl)c3)C3(O)CCNC(c4ccc(F)cc4C)C3)cc2c1 (stereo not drawn) [Compound 160]	2.48 (≈ 4.74 µM)	3.51 (≈ 6.71 µM)	–	–
CSc1ccc2[nH]c(=O)c(C(c3cccc(Cl)c3)C3(O)CCNC(c4ccc(F)cc4C)C3)cc2c1 (stereo not drawn) [Compound 161]	6.90 (≈ 13.2 µM)	6.90 (≈ 13.2 µM)	–	–
CSc1ccc2[nH]c(=O)c(C(c3cccc(Cl)c3)C3(O)CCNC(c4ccc(F)cc4C)C3)cc2c1 (stereo not drawn) [Compound 162]	2.49 (≈ 4.76 µM)	3.52 (≈ 6.73 µM)	–	–
COc1nc2ccc(SC)cc2cc1C(c1cccc(Cl)c1)C1(O)CCNC(c2ccc(F)cc2C)C1 (stereo not drawn) [Compound 163]	1.20 (≈ 2.23 µM)	1.70 (≈ 3.17 µM)	–	–
COc1nc2ccc(SC)cc2cc1C(c1cccc(Cl)c1)C1(O)CCNC(c2ccc(F)cc2C)C1 (stereo not drawn) [Compound 164]	2.38 (≈ 4.43 µM)	4.23 (≈ 7.88 µM)	–	–
COc1nc2ccc(SC)cc2cc1C(c1cccc(Cl)c1)C1(O)CCNC(c2ccc(F)cc2C)C1 (stereo not drawn) [Compound 165]	3.61 (≈ 6.72 µM)	5.10 (≈ 9.5 µM)	–	–
COc1nc2ccc(SC)cc2cc1C(c1cccc(Cl)c1)C1(O)CCNC(c2ccc(F)cc2C)C1 (stereo not drawn) [Compound 166]	1.95 (≈ 3.63 µM)	3.09 (≈ 5.75 µM)	–	–
COc1nc2ccc(SC)cc2cc1C(c1ccccc1)C1(O)CCNC(c2ccc(F)cc2C)C1 (stereo not drawn) [Compound 167]	1.26 (≈ 2.51 µM)	3.17 (≈ 6.31 µM)	–	–
COc1nc2ccc(SC)cc2cc1C(c1ccccc1)C1(O)CCNC(c2ccc(F)cc2C)C1 (stereo not drawn) [Compound 169]	3.94 (≈ 7.84 µM)	4.96 (≈ 9.87 µM)	–	–
COc1nc2ccc(SC)cc2cc1C(c1ccccc1)C1(O)CCNC(c2ccc(F)cc2C)C1 (stereo not drawn) [Compound 170]	4.69 (≈ 9.33 µM)	5.27 (≈ 10.5 µM)	–	–

SMILES	IC90 MSM 607 [1] [µg/mL]	IC90 STA B29213 [2] [µg/mL]	IC90 [1] [µg/mL]	IC90 ([2]; Staphylococcus aureus, ATCC29213, 24 h, read-out: IC90 STA B29213) [µg/mL]
COc1nc2ccc(Br)cc2cc1C(c1cccc(Cl)c1)C1(O)CCNC(c2ccc(F)cc2C)C1 (stereo not drawn) [Compound 173]	–	2.86 (≈ 5.02 µM)	3.2 (≈ 5.62 µM)	–
CSc1ccc2[nH]c(=O)c(C(c3cccc(Cl)c3)C3(O)CCNC(c4ccc(F)cc4C)C3)cc2c1 (stereo not drawn) [Compound 177]	2.78 (≈ 5.31 µM)	1.76 (≈ 3.36 µM)	–	–
CSc1ccc2[nH]c(=O)c(C(c3ccccc3)C3(O)CCNC(c4ccc(F)cc4C)C3)cc2c1 (stereo not drawn) [Compound 179]	6.15 (≈ 12.6 µM)	8.69 (≈ 17.8 µM)	–	–
CSc1ccc2nc(O)c(C(c3ccccc3)C3(O)CCNC(c4ccc(F)cc4C)C3)cc2c1 (stereo not drawn) [Compound 182]	–	–	6.6 (≈ 13.5 µM)	6.6 (≈ 13.5 µM)
CSc1ccc2nc(O)c(C(c3ccccc3)C3(O)CCNC(c4ccc(F)cc4C)C3)cc2c1 (stereo not drawn) [Compound 183]	3.31 (≈ 6.77 µM)	3.31 (≈ 6.77 µM)	–	–
COc1nc2ccc(SC)cc2cc1C(c1ccc(Cl)cc1)C1(O)CCNC(Cc2ccc(F)c(F)c2)C1 (stereo not drawn) [Compound 188]	–	2.20 (≈ 3.96 µM)	2.77 (≈ 4.99 µM)	–
COc1nc2ccc(SC)cc2cc1C(c1ccc(Cl)cc1)C1(O)CCNC(Cc2ccc(F)c(F)c2)C1 (stereo not drawn) [Compound 190]	1.76 (≈ 3.17 µM)	1.39 (≈ 2.5 µM)	–	–
Cc1cc(F)ccc1C1CC(O)(C(c2ccccc2)c2cc3cc(Br)ccc3[nH]c2=O)CCN1 (stereo not drawn) [Compound 192]	13.96 (≈ 26.8 µM)	7.00 (≈ 13.4 µM)	–	–
COc1nc2ccc(SC)cc2cc1C(c1ccccc1)C1(O)CCNC(c2ccc(F)cc2C)C1 (stereo not drawn) [Compound 196]	2.52 (≈ 5.01 µM)	3.17 (≈ 6.31 µM)	–	–
COc1nc2ccc(S(C)(=O)=O)cc2cc1C(c1ccc(Cl)cc1)C1(O)CCNC(c2ccc(F)cc2C)C1 (stereo not drawn) [Compound 201]	>19.28	>19.28	–	–
CSc1ccc2[nH]c(=O)c(C(c3ccc(Cl)cc3)C3(O)CCNC(Cc4ccc(F)c(F)c4)C3)cc2c1 (stereo not drawn) [Compound 204]	7.23 (≈ 13.4 µM)	3.63 (≈ 6.71 µM)	–	–
COc1nc2ccc(S(C)(=O)=O)cc2cc1C(c1ccc(Cl)cc1)C1(O)CCNC(Cc2ccc(F)c(F)c2)C1 (stereo not drawn) [Compound 209]	14.75 (≈ 25.1 µM)	14.75 (≈ 25.1 µM)	–	–
COc1nc2ccc(S(C)(=O)=O)cc2cc1C(c1ccc(Cl)cc1)C1(O)CCNC(Cc2ccc(F)c(F)c2)C1 (stereo not drawn) [Compound 210]	2.94 (≈ 5.01 µM)	1.86 (≈ 3.17 µM)	–	–
CS(=O)(=O)c1ccc2[nH]c(=O)c(C(c3ccc(Cl)cc3)C3(O)CCNC(Cc4ccc(F)c(F)c4)C3)cc2c1 (stereo not drawn) [Compound 212]	6.04 (≈ 10.5 µM)	7.60 (≈ 13.3 µM)	–	–
CS(=O)(=O)c1ccc2[nH]c(=O)c(C(c3ccc(Cl)cc3)C3(O)CCNC(Cc4ccc(F)c(F)c4)C3)cc2c1 (stereo not drawn) [Compound 213]	>17.31	>17.31	–	–
CS(=O)(=O)c1ccc2[nH]c(=O)c(C(c3ccc(Cl)cc3)C3(O)CCNC(Cc4ccc(F)c(F)c4)C3)cc2c1 (stereo not drawn) [Compound 214]	>17.57	>17.57	–	–

Source: patent publication US9617244B2, “Antibacterial quinoline derivatives” (JANSSEN PHARMACEUTICA NV, priority 2012, dated 2017)
